Source: patent publication US20120201768A1, “COSMETIC COMPOSITIONS COMPRISING FICUS SERUM FRACTION AND METHODS TO REDUCE THE APPEARANCE OF SKIN HYPERPIGMENTATION” (priority 2010, published 2012)

Test system: hyperpigmented spots
Experiment: In vivo testing for hyperpigmented spot reduction and melanin evenness (9 week split face study)
Set-up: species or system humans
Details: for Melanin Evenness versus Vehicle / NC2 SAF (spot area fraction) versus Vehicle: vehicle+0.55% FSF or vehicle+5% Niacinamide, twice daily, split face
Description: A 9 week in-vivo study was conducted using a round robin, vehicle controlled, split face design including a 1 week normalization period with 270 subjects. The 270 subjects were screened according to inclusion/exclusion criteria which included the following:
Has hyperpigmented spots around cheek and/or periorbital area on both sides of the face.
Has at least 1 hyperpigmented spot of 8-10 mm diameter, 4 spots of 4-6 mm or 10 spots of 2-3 mm diameter (sun spots, freckles, or melasma spots) or equivalent spot area in the cheek area on each side of their face.
Is willing to refrain from sun exposure by using supplied UV lotion and physical UV blocks, such as a hat, to avoid facial sunburn, tanning or wind burn.
Has been diagnosed as having atopy, eczema, psoriasis, or other chronic skin diseases.
Has obvious signs of facial skin disease (e.g., more than 5 pimples, areas of red scaling skin, superficial thin blood vessels, etc.).
Has significant areas of discoloration or scarring on the face.
Has more than 3 prominent moles (<3 mm) on the face.
Two hundred and seventy subjects were recruited for the study. […] Each subject received two coded test formulations for twice daily application to each half of the face. Images of the facial treatment sites were captured at baseline (week 0), and after 4 and 8 weeks of treatment and analyzed for changes to skin color and spot size and color. The product formulations included a vehicle control, the vehicle+0.55% FSF, and the vehicle+5% vitamin B3 compound (Niacinamide).
Noncontact spectrophotometric intracutaneous analysis (SiaScopy, Astron Clinica, UK) was used to collect and analyze the subject images. The method used a digital camera (e.g., Fuji S2 digital SLR) as a […] and a flash lighting source (e.g., Sigma Super flash light source) to recover facial chromophore information. A cross polarized filter was placed in front of the camera and the lighting source to eliminate specular reflection.
Chromophore mapping of the concentration and distribution of eumelanin (melanin) and oxyhaemoglobin produces grayscale concentration maps of each of these chromophores. Image analysis software, such as Optimas 6.5, can be used to select a region of interest in each chromophore map from which mean grayscale values and spot area fraction are calculated. Spot area fraction refers to total area occupied by melanin spots as a percentage of the whole region of interest. A description of one type of chromophore mapping can be found in EP 1,810,614 and “The Distribution of Melanin in Skin Determined In Vivo”, British Journal of Dermatology, 2007, pp 620-628.
Table 15 summarizes the image analysis data, wherein SAF is the mean Spot Area Fraction and A SAF is the mean change in Spot Area Fraction from baseline (week 0).

With `NC(=O)c1cccnc1` [Niacinamide] the “Melanin Evenness versus Vehicle” value (4 weeks) was “ns (ns = not significant (p > 0.3))”, the “NC2 SAF (spot area fraction) versus Vehicle” value (4 weeks) was “ns (ns = not significant (p > 0.3))” and the “Melanin Evenness versus Vehicle” value (8 weeks) was “Sig”. The “NC2 SAF (spot area fraction) versus Vehicle” value (8 weeks) was “Sig” and the “reduction of hyperpigmented spots (in words)” value (after 8 weeks, vehicle+0.55% FSF, vehicle+5% vitamin B3, control) was “best performer”.
